# Measured values reported in patent US4303785A, “Antitumor anthracycline antibiotics” (priority 1978, dated 1981).
# Where two headings read alike, the source gives them in different places.
# How the values were obtained:
# [1] = test system: Pseudomonas aeruginosa A3; assay: Minimum inhibitory concentration, broth dilution method (Table 3); type: cell-based; settings: for MIC: Pseudomonas aeruginosa, A3, Pseudomonas aeruginosa A3
# Excerpt: (§1) To illustrate such activity, minimum inhibitory concentrations (as determined by the broth dilution method) of representative compounds are shown in Table 3.
# Candida albicans = assay: as above; type: cell-based
# Excerpt: as §1
# Staph. aureus FDA 209P = assay: as above; type: cell-based; settings: for MIC: Staphylococcus aureus, FDA209P
# Excerpt: as §1
# [2] = test system: Bacillus cereus ATCC 10702; assay: as above; type: cell-based; settings: for MIC: ATCC10702
# Excerpt: as §1
# [3] = test system: Corynebacterium bovis 1810; assay: as above; type: cell-based
# Excerpt: as §1
# [4] = test system: Bacillus subtillis NRRLB-558; assay: as above; type: cell-based; settings: for MIC: Bacillus, NRRLB558, Bacillus subtillis NRRLB-558
# Excerpt: as §1
# [5] = test system: Mycobacterium smegmatis ATCC 607; assay: as above; type: cell-based; settings: for MIC: Mycolicibacterium smegmatis, ATCC607
# Excerpt: as §1
# Staph. aureus Smith = assay: as above; type: cell-based
# Excerpt: as §1
# [6] = test system: Micrococcus flavus FDA 16; assay: as above; type: cell-based; settings: for MIC: Micrococcus flavus, FDA16, Micrococcus flavus FDA 16
# Excerpt: as §1
# Sarcina lutea PCI 1001 = assay: as above; type: cell-based; settings: for MIC: Micrococcus luteus, PCI1001
# Excerpt: as §1
# Bacillus megaterium APF = assay: as above; type: cell-based
# Excerpt: as §1
# Escherichia coli NIHJ = assay: as above; type: cell-based
# Excerpt: as §1
# [7] = test system: NADPH-cytochrome P450 reductase; assay: Stability on rat hepatic NADPH-cytochrome P450 reductase: 7-deoxyaglycone formed (Table 7); type: in vitro ADME; settings: 25° C., 25 min., nitrogen; substrate 0.1 mM, NADPH 0.2 mM, enzyme 4.6 μg./ml, pH 8.0
# Description: C. The marked antitumor effects seen from A and B above were confirmed by the stability of the test compounds on the inactivation by hepatic NADPH-cytochrome P450 reductase. Specifically, NADPH-cytochrome P450 reductase purified from rat liver homogenate was incubated with the tetrahydropyranyl ether derivatives of formula I' at 25° C. for 25 min. in nitrogen gas phase, and the incubation product formed, 7-deoxyaglycone, was determined as shown in Table 7.
# L1210 leukemia cells = assay: Growth inhibitory effect on L1210 cells in culture (Table 4); type: cell-based; settings: for inhibition at 0.1 µg/mL / inhibition at 0.5 µg/mL: Mus musculus, read-out: Inhibition Rate (growth); for inhibition at 0.1 µg/mL: L1210, 0.1 μg./ml.; for inhibition at 0.5 µg/mL: L1210, 0.5 μg./ml.
# Description: For example, L1210 cells (5×10^4 cells/ml.) were inoculated in RPMI 1640 medium (Roswell Park Memorial Institute 1640) containing 20% calf serum and cultivated at 37° C. in the presence of 0.1 and 0.5 μg./ml. of the test compounds in a CO2 incubator.
# L1210 leukemia = assay: Antitumor activity in BDF1 mice inoculated with L1210 leukemia cells (Table 6); type: in vivo; settings: once daily for 10 days
# Excerpt: As an example, BDF1 mice were inoculated intraperitoneally with 1×10^6 cells/mouse of L1210 leukemia cells.
# L1210 cells = assay: Inhibition of 14C-uridine and 14C-thymidine incorporation (nucleic acid synthesis) in L1210 cells in culture (Table 5); type: cell-based; settings: 60 min. at 37° C.; for IC50: Mus musculus, L1210, 1 h
# Description: The effect of the tetrahydropyranyl ether derivatives of formula I' on nucleic acid synthesis was examined as follows: […]
# 1×10^5 cells/ml. of L1210 cells were suspended in RPMI medium containing 10% calf serum, pre-cultivated at 37° C. for 1 to 2 hours in a CO2 incubator and then the test compounds were added to the medium at various concentrations. After 15 min. of incubation, ^14 C-uridine (0.05 μCi/ml.) or ^14 C-thymidine (0.05 μCi/ml.) was added and incubated at 37° C. for 60 min. Trichloroacetic acid (TCA) (10%) was added to the incubation medium to stop the reaction and precipitate the acid-insoluble materials, and then the precipitate was washed three times with 5 to 10% […]. The radioactivity was measured and expressed as 50% inhibition concentration of incorporation.
# [8] = thymidine, read-out: 50% Inhibition Concentration of 14C-Thymidine Incorporation
# [9] = uridine, read-out: 50% Inhibition Concentration of 14C-Uridine Incorporation
SMILES,MIC [1] [µg/mL],MIC (Candida albicans) [µg/mL],MIC (Staph. aureus FDA 209P) [µg/mL],MIC [2] [µg/mL],MIC [3] [µg/mL],MIC [4] [µg/mL],MIC [5] [µg/mL],Minimum Inhibitory Concentration (MIC) (Staph. aureus Smith) [µg/mL],MIC [6] [µg/mL],Product (7-Deoxyaglycone) [7] [nmoles/tube],inhibition at 0.1 µg/mL (L1210 leukemia cells) [%],inhibition at 0.5 µg/mL (L1210 leukemia cells) [%],"Antitumor Activity (T/C, prolongation rate of survival day) (L1210 leukemia; 0.15 mg./kg./day i.p.) [%]","Antitumor Activity (T/C, prolongation rate of survival day) (L1210 leukemia; 0.3 mg./kg./day i.p.) [%]","Antitumor Activity (T/C, prolongation rate of survival day) (L1210 leukemia; 0.6 mg./kg./day i.p.) [%]","Antitumor Activity (T/C, prolongation rate of survival day) (L1210 leukemia; 1.25 mg./kg./day i.p.) [%]","Antitumor Activity (T/C, prolongation rate of survival day) (L1210 leukemia; 2.5 mg./kg./day i.p.) [%]","Antitumor Activity (T/C, prolongation rate of survival day) (L1210 leukemia; 5 mg./kg./day i.p.) [%]",IC50 (L1210 cells; [8]) [µg/mL],IC50 (L1210 cells; [9]) [µg/mL],other results
"COc1cccc2c1C(=O)c1c(O)c3c(c(O)c1C2=O)C[C@@](O)(C(C)=O)C[C@@H]3O[C@H]1C[C@H](N)[C@H](OC2CCCCO2)[C@H](C)O1 (single isomer, unassigned; isomer a) [4'-O-PDa, 4'-O-tetrahydropyranyl daunomycin (isomer a)]",> 100,> 50,6.25,6.25,0.78,3.12,6.25,12.5,0.78,37.3,79.2,95,90,96,115,122,> 320,> 320,0.28,0.13,MIC (Sarcina lutea PCI 1001): 0.39 µg/mL; Minimum Inhibitory Concentration (MIC) (Bacillus megaterium APF): 6.25 µg/mL; MIC (Escherichia coli NIHJ): > 100 µg/mL
"COc1cccc2c1C(=O)c1c(O)c3c(c(O)c1C2=O)C[C@@](O)(C(=O)COC1CCCCO1)C[C@@H]3O[C@H]1C[C@H](N)[C@H](OC2CCCCO2)[C@H](C)O1 (single isomer, unassigned; isomer b) [4',14-di-O-PAb, 4',14-bis(O-tetrahydropyranyl)adriamycin (isomer b)]",,,,,,,,,,15.8,,,115,96,103,103,109,161,,,Inhibition Rate (growth) (L1210 leukemia cells; 0.1 μg./ml.): 25.5%; Inhibition Rate (growth) (L1210 leukemia cells; 0.5 μg./ml.): 72.1%; 50% Inhibition Concentration of 14C-Thymidine Incorporation (L1210 cells; thymidine): 0.97 µg/mL; 50% Inhibition Concentration of 14C-Uridine Incorporation (L1210 cells; uridine): 0.24 µg/mL
"COc1cccc2c1C(=O)c1c(O)c3c(c(O)c1C2=O)C[C@@](O)(C(=O)CO)C[C@@H]3O[C@H]1C[C@H](N)[C@H](OC2CCCCO2)[C@H](C)O1 (single isomer, unassigned; isomer b) [4'-O-PAb, 4'-O-tetrahydropyranyl adriamycin (isomer b)]",,,,,,,,6.25,,,,,113,160,293,> 373,> 360,> 375,,,Minimum Inhibitory Concentration (MIC) ([1]; Pseudomonas aeruginosa A3): > 100 µg/mL; Minimum Inhibitory Concentration (MIC) (Candida albicans): > 50 µg/mL; Minimum Inhibitory Concentration (MIC) (Staph. aureus FDA 209P): 6.25 µg/mL; Minimum Inhibitory Concentration (MIC) [2]: 6.25 µg/mL; Minimum Inhibitory Concentration (MIC) [3]: 3.12 µg/mL; Minimum Inhibitory Concentration (MIC) ([4]; Bacillus subtillis NRRLB-558): 3.12 µg/mL; Minimum Inhibitory Concentration (MIC) [5]: 100 µg/mL; Minimum Inhibitory Concentration (MIC) ([6]; Micrococcus flavus FDA 16): 3.12 µg/mL; Minimum Inhibitory Concentration (MIC) (Sarcina lutea PCI 1001): 0.78 µg/mL; Minimum Inhibitory Concentration (MIC) (Bacillus megaterium APF): 3.12 µg/mL; Minimum Inhibitory Concentration (MIC) (Escherichia coli NIHJ): > 100 µg/mL; Inhibition Rate (growth) (L1210 leukemia cells; 0.1 μg./ml.): 78.1%; Inhibition Rate (growth) (L1210 leukemia cells; 0.5 μg./ml.): 92.9%; 50% Inhibition Concentration of 14C-Thymidine Incorporation (L1210 cells; thymidine): 0.50 µg/mL; 50% Inhibition Concentration of 14C-Uridine Incorporation (L1210 cells; uridine): 0.24 µg/mL
"COc1cccc2c1C(=O)c1c(O)c3c(c(O)c1C2=O)C[C@@](O)(C(=O)COC1CCCCO1)C[C@@H]3O[C@H]1C[C@H](N)[C@H](OC2CCCCO2)[C@H](C)O1 (single isomer, unassigned; isomer a) [4',14-di-O-PAa, 4',14-bis(O-tetrahydropyranyl)adriamycin (isomer a)]",,,,,,,,,,13.1,37.5,80.8,96,103,96,109,115,154,0.55,0.23,
"COc1cccc2c1C(=O)c1c(O)c3c(c(O)c1C2=O)C[C@@](O)(C(=O)COC1CCCCO1)C[C@@H]3O[C@H]1C[C@H](N)[C@H](O)[C@H](C)O1 (stereo partly drawn) [Example 14-O-PA, 14-O-tetrahydropyranyl adriamycin]",,,,,,,,,,18.4,7.6,58.3,103,110,113,126,130,142,0.42,0.17,
"COc1cccc2c1C(=O)c1c(O)c3c(c(O)c1C2=O)C[C@@](O)(C(=O)CO)C[C@@H]3O[C@H]1C[C@H](N)[C@H](OC2CCCCO2)[C@H](C)O1 (single isomer, unassigned; isomer a) [4'-O-PAa, 4'-O-tetrahydropyranyl adriamycin (isomer a)]",> 100,> 100,6.25,6.25,3.12,3.12,100,,3.12,,65.9,81.1,127,120,187,180,173,,0.37,0.2,MIC (Staph. aureus Smith; Staphylococcus aureus): 6.25 µg/mL; MIC (Sarcina lutea PCI 1001): 0.78 µg/mL; MIC (Bacillus megaterium APF; Priestia megaterium): 3.12 µg/mL; MIC (Escherichia coli NIHJ): > 100 µg/mL
